Data taken from ChEMBL document CHEMBL3044714, “Studies on fused heterocyclic 3,6-disubstituted-1,2,4-triazolo-1,3,4-thiadiazoles: synthesis and biological evaluation” (Med Chem Res, 2011).

Legend:
Rattus norvegicus [1] = experiment: Anti-inflammatory activity in Rattus norvegicus Wistar (rat) assessed as inhibition of carrageenan-induced paw edema at 20 mg/kg, po administered 30 min prior to carrageenan-induced measured after 3 hr relative to control; format: functional
Rattus norvegicus [2] = experiment: Anti-inflammatory activity in Rattus norvegicus Wistar (rat) assessed as inhibition of carrageenan-induced paw edema at 20 mg/kg, po administered 30 min prior to carrageenan-induced measured after 2 hr relative to control; format: functional
Rattus norvegicus [3] = experiment: Ulcerogenic activity in fasted Rattus norvegicus Wistar (rat) assessed as ulcer index at 60 mg/kg, po measured after 17 hr; format: toxicity, organism-based; design: dose 60 mg/kg, route oral; details: in vivo
Rattus norvegicus [4] = experiment: Induction of lipid peroxidation in fasted Rattus norvegicus Wistar (rat) assessed as malondialdehyde level per 100 mg gastric mucosal tissue at 60 mg/kg, po measured after 17 hr by thiobarbuteric acid method; format: organism-based, Gastric mucosa; design: dose 60 mg/kg, route oral; details: in vivo
Mus musculus = experiment: Analgesic activity in Mus musculus albino (mouse) assessed as protection against acetic acid-induced writhing at 25 mg/kg, ip administered 20 min prior to acetic acid-challenge measured for 20 min relative to control; format: functional; details: route intraperitoneal

SMILES | inhibition in vivo at 20 mg/kg (Rattus norvegicus [1]) | inhibition in vivo at 20 mg/kg (Rattus norvegicus [2]) | UI (Rattus norvegicus [3]) | Activity (Rattus norvegicus [4]) | Activity (Mus musculus)
O=C(NCc1nn2c(Cc3ccccc3)nnc2s1)c1ccccc1 | 28% | 21.2% |  |  | 
c1ccc(Cc2nnc3sc(-c4ccccc4Oc4ccccc4)nn23)cc1 | 56.3% | 41% | 0.91 | 3.26 nmol | 30.43%
c1ccc(Cc2nnc3sc(Cc4cc5ccccc5[nH]4)nn23)cc1 | 41% | 36.7% |  |  | 
O=C(NCc1nn2c(COc3ccccc3)nnc2s1)c1ccccc1 | 37.1% | 35.9% |  |  | 
O=C(c1ccccc1)c1ccccc1-c1nn2c(COc3ccccc3)nnc2s1 | 63.3% | 54.8% | 1.25 | 4.42 nmol | 43.48%
c1ccc(OCc2nnc3sc(Cc4cc5ccccc5[nH]4)nn23)cc1 | 50.5% | 32.1% | 0.83 | 3.15 nmol | 40.22%
c1ccc(OCc2nnc3sc(Cc4cccc5ccccc45)nn23)cc1 | 24.6% | 18.5% |  |  | 
O=C(CCc1nn2c(COc3ccccc3)nnc2s1)c1ccccc1 | 70.9% | 56.5% | 1.16 | 3.95 nmol | 65.58%
O=C(NCc1nn2c(-c3ccccc3O)nnc2s1)c1ccccc1 | 32.3% | 24.4% |  |  | 
Oc1ccccc1-c1nnc2sc(Cc3cccc4ccccc34)nn12 | 35% | 28% |  |  | 
CC(=O)Oc1ccccc1C(=O)O [ASPIRIN] |  |  |  |  | 61.96%
COc1ccc2c(c1)c(CC(=O)O)c(C)n2C(=O)c1ccc(Cl)cc1 [INDOMETHACIN] | 66.9% | 50.7% | 2.25 | 7.95 nmol | 
